Inconclusive results and toxic doses are left out.
System: P388 leukemia ip, CD2F1 mice, survival T/C
Test: NCI In Vivo Anticancer Drug Screen. Data for tumor model P388 Leukemia (intraperitoneal) in CD2F1 (CDF1) mice
Conditions: endpoint: median survival time, higher = longer survival
Method in brief: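 Mice carrying the transplanted tumor received test compound or vehicle. Survival was recorded in each group, and the value is the treated-group measurement divided by that of the vehicle-treated control group.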

[1] = dose: 50.0 mg/kg/injection, schedule: Q01DX005 (ip), vehicle: Klucel (hydroxypropylcellulose) (HPC)
[2] = dose: 100.0 mg/kg/injection, schedule: Q01DX005 (ip), vehicle: Klucel (hydroxypropylcellulose) (HPC)
[3] = dose: 50.0 mg/kg/injection, schedule: Q01DX009 (ip), vehicle: Klucel (hydroxypropylcellulose) (HPC)
[4] = dose: 100.0 mg/kg/injection, schedule: Q01DX009 (ip), vehicle: Klucel (hydroxypropylcellulose) (HPC)
[5] = dose: 200.0 mg/kg/injection, schedule: Q01DX009 (ip), vehicle: Klucel (hydroxypropylcellulose) (HPC)
[6] = dose: 50.0 mg/kg/injection, schedule: Q01DX005 (ip), vehicle: saline with Tween-80
[7] = dose: 100.0 mg/kg/injection, schedule: Q01DX005 (ip), vehicle: saline with Tween-80
[8] = dose: 200.0 mg/kg/injection, schedule: Q01DX005 (ip), vehicle: saline with Tween-80
[9] = dose: 100.0 mg/kg/injection, schedule: Q04DX003 (ip), vehicle: saline with Tween-80
[10] = dose: 200.0 mg/kg/injection, schedule: Q04DX003 (ip), vehicle: saline with Tween-80
[11] = dose: 400.0 mg/kg/injection, schedule: Q04DX003 (ip), vehicle: saline with Tween-80
[12] = dose: 6.25 mg/kg/injection, schedule: Q01DX009 (ip), vehicle: saline with Tween-80

## COc1cc(OC)c2c(c1)C(C1c3cc(C)cc(O)c3C(=O)c3c(OC)cc(OC)cc31)c1cc(C)cc(O)c1C2=O (stereo not drawn)
dose: 12.5 mg/kg/injection, schedule: Q01DX005 (ip), vehicle: Klucel (hydroxypropylcellulose) (HPC)
  T/C: 105 % of control
dose: 25.0 mg/kg/injection, schedule: Q01DX005 (ip), vehicle: Klucel (hydroxypropylcellulose) (HPC)
  T/C: 100 % of control
[1]
  T/C: 92 % of control
[2]
  T/C: 92 % of control
dose: 200.0 mg/kg/injection, schedule: Q01DX005 (ip), vehicle: Klucel (hydroxypropylcellulose) (HPC)
  T/C: 96 % of control

## O=C(Nc1ccc(Cl)cc1)Nc1nnc(-c2ccc(F)cc2)o1
dose: 15.0 mg/kg/injection, schedule: Q01DX005 (ip), vehicle: saline with Tween-80
  T/C: 100 % of control
dose: 30.0 mg/kg/injection, schedule: Q01DX005 (ip), vehicle: saline with Tween-80
  T/C: 91 % of control
dose: 60.0 mg/kg/injection, schedule: Q01DX005 (ip), vehicle: saline with Tween-80
  T/C: 90 % of control

## Clc1ccc2ncnc(Nc3ccccc3)c2c1
[3]
  T/C: 91 % of control
[4]
  T/C: 100 % of control
[5]
  T/C: 86 % of control

## C=C1C(=O)OC2CCCCC12 (stereo not drawn)
dose: 50.0 mg/kg/injection, schedule: Q04DX003 (ip), vehicle: Klucel (hydroxypropylcellulose) (HPC)
  T/C: 104 % of control
dose: 100.0 mg/kg/injection, schedule: Q04DX003 (ip), vehicle: Klucel (hydroxypropylcellulose) (HPC)
  T/C: 105 % of control
dose: 200.0 mg/kg/injection, schedule: Q04DX003 (ip), vehicle: Klucel (hydroxypropylcellulose) (HPC)
  T/C: 101 % of control

## CC(C)(C)C1(C(C)(C)C)CO1
dose: 6.25 mg/kg/injection, schedule: Q01DX009 (ip), vehicle: saline
  T/C: 98 % of control
dose: 12.5 mg/kg/injection, schedule: Q01DX009 (ip), vehicle: saline
  T/C: 96 % of control

## CN(c1ccccc1)C(C#N)CC(C)(C)C (stereo not drawn)
[1]
  T/C: 98 % of control
[2]
  T/C: 107 % of control

## CN(C)CCN1C(=O)c2cccc3cc(N)cc(c23)C1=O
dose: 2.0 mg/kg/injection, schedule: Q01DX009 (ip), vehicle: saline with Tween-80
  T/C: 111 % of control
dose: 8.0 mg/kg/injection, schedule: Q01DX009 (ip), vehicle: saline with Tween-80
  T/C: 176 % of control

## CC(C)NC(=O)N(CCCCBr)N=O
dose: 6.25 mg/kg/injection, schedule: Q01DX009 (ip), vehicle: Klucel (hydroxypropylcellulose) (HPC)
  T/C: 92 % of control
dose: 12.5 mg/kg/injection, schedule: Q01DX009 (ip), vehicle: Klucel (hydroxypropylcellulose) (HPC)
  T/C: 99 % of control
dose: 25.0 mg/kg/injection, schedule: Q01DX009 (ip), vehicle: Klucel (hydroxypropylcellulose) (HPC)
  T/C: 101 % of control
[3]
  T/C: 117 % of control

## CSCCC(NC(=O)C(Cc1ccccc1)NC(=O)CNC(=O)CNC(=O)C(N)Cc1ccc(O)cc1)C(=O)O (stereo not drawn)
[6]
  T/C: 101 % of control
[7]
  T/C: 92 % of control
[8]
  T/C: 92 % of control

## CC1=NCCN=C(C)C1N=Nc1ccc(S(=O)(=O)Nc2ncccn2)cc1
[9]
  T/C: 96 % of control
[10]
  T/C: 93 % of control
[11]
  T/C: 99 % of control

## CCOCCC(=NC(C)(C)C)Nc1ccccc1C
dose: 50.0 mg/kg/injection, schedule: Q01DX009 (ip), vehicle: saline
  T/C: 107 % of control
dose: 100.0 mg/kg/injection, schedule: Q01DX009 (ip), vehicle: saline
  T/C: 115 % of control

## CCC1(/C=N/NC(N)=S)NC(=O)NC1=O (stereo not drawn)
[6]
  T/C: 93 % of control
[7]
  T/C: 89 % of control
[8]
  T/C: 94 % of control

## N#C/C1=C(\C#N)N=Cc2ccccc2NCCNc2ccccc2C=N1
dose: 100.0 mg/kg/injection, schedule: Q04DX003 (ip), vehicle: saline
  T/C: 91 % of control
dose: 200.0 mg/kg/injection, schedule: Q04DX003 (ip), vehicle: saline
  T/C: 98 % of control
dose: 400.0 mg/kg/injection, schedule: Q04DX003 (ip), vehicle: saline
  T/C: 100 % of control

## O=C(Nc1ccccc1)Nc1ccc2c(c1)C(=O)CCCC2
[6]
  T/C: 96 % of control
[7]
  T/C: 93 % of control
[8]
  T/C: 94 % of control

## CCCCN1CCNC1=S
[6]
  T/C: 100 % of control
[7]
  T/C: 102 % of control
[8]
  T/C: 102 % of control

## Cc1nc2ccccc2c(=O)n1/N=C\c1ccc2c(c1)CCC2
dose: 60.0 mg/kg/injection, schedule: Q01DX005 (ip), vehicle: Klucel (hydroxypropylcellulose) (HPC)
  T/C: 97 % of control
dose: 120.0 mg/kg/injection, schedule: Q01DX005 (ip), vehicle: Klucel (hydroxypropylcellulose) (HPC)
  T/C: 104 % of control
dose: 240.0 mg/kg/injection, schedule: Q01DX005 (ip), vehicle: Klucel (hydroxypropylcellulose) (HPC)
  T/C: 95 % of control

## C=CC(C)(Cl)C(Cl)/C=C/C(C=O)=C/Cl (stereo not drawn)
dose: 1.75 mg/kg/injection, schedule: Q01DX009 (ip), vehicle: Klucel (hydroxypropylcellulose) (HPC)
  T/C: 101 % of control
dose: 3.5 mg/kg/injection, schedule: Q01DX009 (ip), vehicle: Klucel (hydroxypropylcellulose) (HPC)
  T/C: 100 % of control
dose: 7.0 mg/kg/injection, schedule: Q01DX009 (ip), vehicle: Klucel (hydroxypropylcellulose) (HPC)
  T/C: 101 % of control
dose: 14.0 mg/kg/injection, schedule: Q01DX009 (ip), vehicle: Klucel (hydroxypropylcellulose) (HPC)
  T/C: 100 % of control

## CC(C)[NH-].CC(C)[NH-].[Cl][Pt+2]([Cl])([Cl])[Cl]
dose: 22.0 mg/kg/injection, schedule: Q01DX009 (ip), vehicle: saline with Tween-80
  T/C: 155 % of control
dose: 33.0 mg/kg/injection, schedule: Q01DX009 (ip), vehicle: saline with Tween-80
  T/C: 165 % of control
dose: 50.0 mg/kg/injection, schedule: Q01DX009 (ip), vehicle: saline with Tween-80
  T/C: 152 % of control

## N#CC(C#N)=C(C#N)c1ccccc1
dose: 12.5 mg/kg/injection, schedule: Q01DX009 (ip), vehicle: saline with Tween-80
  T/C: 90 % of control
dose: 25.0 mg/kg/injection, schedule: Q01DX009 (ip), vehicle: saline with Tween-80
  T/C: 113 % of control

## Cc1ncn2cnnc2c1C
[9]
  T/C: 89 % of control
[10]
  T/C: 95 % of control

## S1SSSSSSS1
dose: 8.0 mg/kg/injection, schedule: Q01DX005 (ip), vehicle: Klucel (hydroxypropylcellulose) (HPC)
  T/C: 103 % of control
dose: 16.0 mg/kg/injection, schedule: Q01DX005 (ip), vehicle: Klucel (hydroxypropylcellulose) (HPC)
  T/C: 106 % of control
dose: 32.0 mg/kg/injection, schedule: Q01DX005 (ip), vehicle: Klucel (hydroxypropylcellulose) (HPC)
  T/C: 104 % of control
dose: 64.0 mg/kg/injection, schedule: Q01DX005 (ip), vehicle: Klucel (hydroxypropylcellulose) (HPC)
  T/C: 100 % of control

## Cc1ccc2c(c1)c(N=NC(N)=S)c(O)n2C1OC(CO)C(O)C(O)C1O (stereo not drawn)
dose: 32.0 mg/kg/injection, schedule: Q01DX009 (ip), vehicle: saline with Tween-80
  T/C: 102 % of control
dose: 64.0 mg/kg/injection, schedule: Q01DX009 (ip), vehicle: saline with Tween-80
  T/C: 95 % of control
dose: 128.0 mg/kg/injection, schedule: Q01DX009 (ip), vehicle: saline with Tween-80
  T/C: 98 % of control

## CSc1c(C(=O)NC(C)C)cc(C(C)(C)C)cc1C(=O)NC(C)C
[3]
  T/C: 89 % of control
[4]
  T/C: 86 % of control
[5]
  T/C: 89 % of control

## Cc1nc2c([N+](=O)[O-])c(Nc3ccc(O)cc3)c([N+](=O)[O-])cc2[nH]1
[9]
  T/C: 99 % of control
[10]
  T/C: 92 % of control
[11]
  T/C: 92 % of control

## O=C(O)/C=N/NS(=O)(=O)c1ccc(Cl)cc1
dose: 6.25 mg/kg/injection, schedule: Q01DX009 (ip), vehicle: other
  T/C: 101 % of control
dose: 12.5 mg/kg/injection, schedule: Q01DX009 (ip), vehicle: other
  T/C: 122 % of control
dose: 50.0 mg/kg/injection, schedule: Q01DX009 (ip), vehicle: other
  T/C: 159 % of control
dose: 100.0 mg/kg/injection, schedule: Q01DX009 (ip), vehicle: other
  T/C: 99 % of control

## CCC(=N/NC(=S)NCCN1CCCCC1)/C(CC)=N\NC(=S)NCCN1CCCCC1
dose: 3.13 mg/kg/injection, schedule: Q01DX009 (ip), vehicle: saline with Tween-80
  T/C: 100 % of control
[12]
  T/C: 103 % of control

## C/C(=N\NC(=S)N(C)C)c1ccccn1
[12]
  T/C: 100 % of control

From PubChem BioAssay AID330 (DTP/NCI, 2004)
